The term IC50 denotes the concentration at which inhibition is half-maximal.

Sequence of MAGL (Q99685 whole entry, species assumed): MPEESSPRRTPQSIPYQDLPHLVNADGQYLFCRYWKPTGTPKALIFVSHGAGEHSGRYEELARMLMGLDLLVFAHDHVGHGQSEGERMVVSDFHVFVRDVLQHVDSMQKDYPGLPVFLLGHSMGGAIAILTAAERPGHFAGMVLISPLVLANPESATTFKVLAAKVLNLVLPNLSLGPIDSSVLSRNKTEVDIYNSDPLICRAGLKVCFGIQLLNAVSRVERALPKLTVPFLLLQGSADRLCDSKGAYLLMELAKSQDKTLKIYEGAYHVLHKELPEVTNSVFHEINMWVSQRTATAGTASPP

For the assay, the target named is MAGL (Homo sapiens (Human), UniProt Q99685). The assay can be described thus: 2-AG assay (MAGL inhibitory activity, hydrolysis of 2-arachidonoylglycerol followed by mass spectrometry). In kind it is biochemical. The conditions noted are these: 50 pM MAGL protein, 15 min pre-incubation, 30 min incubation at RT. From the text:
Compounds of formula (II) were profiled for MAGL inhibitory activity by determining the enzymatic activity by following the hydrolysis of the natural substrate 2-arachidonoylglycerol (2-AG) resulting in arachidonic acid, which can be followed by mass spectrometry. This assay is hereinafter abbreviated “2-AG assay”.
Compounds of formula (II) were profiled for MAGL inhibitory activity by determining the enzymatic activity by following the hydrolysis of the natural substrate 2-arachidonoylglycerol (2-AG) resulting in arachidonic acid, which can be followed by mass spectrometry. This assay is hereinafter abbreviated “2-AG assay”. The 2-AG assay was carried out in 384 well polypropylene assay plates. Compound dilutions were made in 100% DMSO in a polypropylene plate in 3-fold dilution steps to give a final concentration range in the assay from 12.5 μM to 0.8 pM. Compound dilutions were added to MAGL protein in assay buffer (50 mM TRIS, 1 mM EDTA, 0.01% (v/v) Tween-20, 2.5% (v/v) DMSO). After shaking, the plate was incubated for 15 min at RT. To start the reaction, 2-arachidonoylglycerol in assay buffer was added. The final concentrations in the assay was 50 pM for MAGL protein and […] 2-arachidonoylglyerol. After shaking and 30 min incubation at RT, the reaction was quenched by the addition of two assay volumes of acetonitrile containing 4 μM of d8-arachidonic acid. The amount of arachidonic acid formed was traced by an online SPE system (Agilent Rapidfire) coupled to a triple quadrupole mass spectrometer. A C18 SPE cartridge (Agilent G9205A) was used in an acetonitrile/water liquid setup. The mass spectrometer was operated in negative electrospray mode following the mass transitions 303.1→259.1 for arachidonic acid and 311.1→267.0 for d8-arachidonic acid. The activity of the compounds was calculated based on the ratio of intensities [arachidonic acid/d8-arachidonic acid].
The compound `C[C@@H]1c2nn(C)c(-c3cncc(C(F)(F)F)n3)c2CCN1C(=O)c1ncn(-c2ccc[nH]c2=O)n1` [Example 96, 3-[3-[(7R)-2,7-dimethyl-3-[6-(trifluoromethyl)pyrazin-2-yl]-5,7-dihydro-4H-pyrazolo[3,4-c]pyridine-6-carbonyl]-1,2,4-triazol-1-yl]-1H-pyridin-2-one] showed an IC50 of 1.26 µM.

The compound `C[C@H]1c2nn(C)c(-c3cc(F)cc(F)c3)c2CCN1C(=O)c1cc(F)cc(-c2c[nH]c(C#N)c2)c1` [Example 53, 4-[3-[(7S)-3-(3,5-Difluorophenyl)-2,7-dimethyl-5,7-dihydro-4H-pyrazolo[3,4-c]pyridine-6-carbonyl]-5-fluorophenyl]-1H-pyrrole-2-carbonitrile] had an IC50 of 0.003 µM. This IC50 lies about 420-fold lower than the previous one.

`COc1cccc(C(=O)N2CCc3c(nn(C)c3-c3cccc(O)n3)[C@@H]2C)c1Cl` [Example 13, (2-Chloro-3-methoxy-phenyl)-[(7S)-3-(6-hydroxy-2-pyridyl)-2,7-dimethyl-5,7-dihydro-4H-pyrazolo[3,4-c]pyridin-6-yl]methanone]: it took 0.622 µM to reach half-maximal inhibition (IC50).

With `COc1cccc(C(=O)N2CCc3c(nn(C)c3-c3cc(Cl)cc(CC(C)(C)O)c3)[C@@H]2C)c1Cl` [Example 95, [(7S)-3-[3-chloro-5-(2-hydroxy-2-methyl-propyl)phenyl]-2,7-dimethyl-5,7-dihydro-4H-pyrazolo[3,4-c]pyridin-6-yl]-(2-chloro-3-methoxy-phenyl)methanone], the IC50 is 0.0169 µM. Against the preceding compound, the IC50 is about 37-fold lower.

As for `CC1c2nn(C)c(-c3cncc(C(F)(F)F)n3)c2CCN1C(=O)c1cc(F)cc(N2CC(S(N)(=O)=O)C2)c1Cl` (stereo not shown) [Example 58, 1-[2-Chloro-3-[2,7-dimethyl-3-[6-(trifluoromethyl)pyrazin-2-yl]-5,7-dihydro-4H-pyrazolo[3,4-c]pyridine-6-carbonyl]-5-fluoro-phenyl]azetidine-3-sulfonamide], the IC50 came out at 0.304 µM. This IC50 lies about 18-fold higher than the previous one.

Consider `COc1cccc(C(=O)N2CCc3c(nn(C)c3-c3cc(Cl)cc(C4(NS(C)(=O)=O)CC4)c3)[C@@H]2C)c1Cl` [Example 7, N-[1-[3-Chloro-5-[(7S)-6-(2-chloro-3-methoxy-benzoyl)-2,7-dimethyl-5,7-dihydro-4H-pyrazolo[3,4-c]pyridin-3-yl]phenyl]cyclopropyl]methanesulfonamide], for which the IC50 was found to be 0.017 µM.

With `C[C@@H]1c2nn(C)c(-c3cc(F)cc(F)c3)c2CCN1C(=O)c1cc(F)cc(OCC2CNC(=O)O2)c1Cl` (single isomer, unassigned) [Example 51, 5-[[2-Chloro-3-[3-(3,5-difluorophenyl)-2,7-dimethyl-5,7-dihydro-4H-pyrazolo[3,4-c]pyridine-6-carbonyl]-5-fluoro-phenoxy]methyl]oxazolidin-2-one], half-maximal inhibition (IC50) was put at 0.187 µM.

In turn, `COc1cccc(C(=O)N2CCc3c(nn(C)c3-c3ccnc(C(F)(F)F)n3)[C@@H]2C)c1Cl` [Example 81, (2-chloro-3-methoxy-phenyl)-[(7S)-2,7-dimethyl-3-[2-(trifluoromethyl)pyrimidin-4-yl]-5,7-dihydro-4H-pyrazolo[3,4-c]pyridin-6-yl]methanone] returned an IC50 of 0.021 µM.

`CC1c2nn(C)c(-c3cc(Cl)cc(C4(NS(C)(=O)=O)CC4)c3)c2CCN1C(=O)c1cc(F)cc(-c2c[nH]c(C#N)c2)c1Cl` (stereo not shown) [Example 84, N-[1-[3-chloro-5-[6-[2-chloro-3-(5-cyano-1H-pyrrol-3-yl)-5-fluoro-benzoyl]-2,7-dimethyl-5,7-dihydro-4H-pyrazolo[3,4-c]pyridin-3-yl]phenyl]cyclopropyl]methanesulfonamide] came in with an IC50 of 0.00618 µM.

Take `COc1cccc(C(=O)N2CCc3c(nn(C)c3-c3cncc(S(C)(=O)=O)c3)[C@@H]2C)c1Cl` [Example 10, (2-Chloro-3-methoxy-phenyl)-[(7S)-2,7-dimethyl-3-(5-methylsulfonyl-3-pyridyl)-5,7-dihydro-4H-pyrazolo[3,4-c]pyridin-6-yl]methanone]: it took 4.87 µM to reach half-maximal inhibition (IC50).

These data come from patent US20250059185A1 (Hoffmann-La Roche Inc., priority 2021, published 2025).
